From ChEMBL document CHEMBL1133901, “Synthesis and potassium channel opening activity of substituted 10H-benzo[4,5]furo[3,2-b]indole-and 5,10-dihydro-indeno[1,2-b]indole-1-carboxylic acids” (Bioorg Med Chem Lett, 2001) come the findings set out here.

What is called IC50 is the midpoint of a concentration-inhibition curve.

For the first assay, the species on record is Rattus norvegicus. Put plainly: Concentration that relaxed KCl-induced contractions in rat aortic rings by 50%. In kind it is functional. Conditions: Aorta.
For `O=C(O)c1cccc2c1Cc1c-2[nH]c2ccc(Br)cc12`, half-maximal inhibition (IC50) required 109 µM.
In turn, `O=C(O)c1cccc2c1[nH]c1c3cc(Br)ccc3oc21` yielded an IC50 of 118 µM.
Compound `CC1(C)c2ccc([N+](=O)[O-])cc2-c2[nH]c3c(C(=O)O)cccc3c21` returned an IC50 of 17.2 µM.
Consider `O=C(O)c1cccc2c3c([nH]c12)-c1cc(Br)ccc1C3`, for which the half-maximal inhibitory concentration (IC50) worked out at 210 µM.

For another assay, the species on record is Rattus norvegicus. Put plainly: Concentration that relaxed KCl-induced contractions in rat detrusor strips by 50%. In kind it is functional.
Details: not given
In the case of `O=C(O)c1cccc2c1Cc1c-2[nH]c2ccc(Cl)cc12`, 22.6 µM corresponded to half-maximal inhibition (IC50).
`O=C(O)c1cccc2c1Cc1c-2[nH]c2ccc(I)cc12` had an IC50 of 10.1 µM.
In turn, `Cn1c2c(C(=O)O)cccc2c2oc3ccc(Br)cc3c21` displayed an IC50 of more than 30 µM.
`O=Cc1cccc2c1[nH]c1c3cc(Br)ccc3oc21` gave an IC50 of more than 30 µM.
Take `O=C(O)c1cccc2c1[nH]c1c3cc(Cl)ccc3oc21`: half-maximal inhibition (IC50) required 5.8 µM.
Consider `O=C(O)c1cccc2c1Cc1c-2[nH]c2ccc(Br)cc12`, for which the IC50 came out at 4.4 µM.
Consider `O=C(O)c1cccc2c1[nH]c1c3cc(Br)ccc3oc21`, for which the IC50 came to 15.1 µM.
On the same count and under the same terms, the same measure for `COC(=O)c1cccc2c1[nH]c1c3cc(Br)ccc3oc21`: more than 30 µM; for `O=C(O)c1cccc2c1Cc1c-2[nH]c2ccc(OC(F)(F)F)cc12`: 15.4 µM; for `CC1(C)c2ccc([N+](=O)[O-])cc2-c2[nH]c3c(C(=O)O)cccc3c21`: 5.2 µM.
Take `NS(=O)(=O)c1ccc2[nH]c3c(c2c1)Cc1c(C(=O)O)cccc1-3`: the IC50 is more than 30 µM.
`O=C(O)c1cccc2c1[nH]c1c3ccccc3oc21`: the IC50 was determined as 30 µM.
Consider `NC(=O)c1cccc2c1[nH]c1c3cc(Br)ccc3oc21`, for which the IC50 is more than 30 µM.
On the same count and under the same terms, the same measure for `O=C(O)c1cccc2c1[nH]c1c3cc(I)ccc3oc21`: 6.1 µM; for `O=C(O)c1cccc2c1[nH]c1c3cc([N+](=O)[O-])ccc3oc21`: 6.3 µM.
